Test [1] addresses T1, horseradish peroxidase (HRP) tagged delF508-CFTR (Homo sapiens, UniProt P13569, DEL508-508).
T1 construct: expressed in transfected cells
The test can be described thus: Measurement of delF508-CFTR-HRP surface expression in CFBE41o- cells.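 As to DelF508-CFTR-HRP Amax %: percent efficacy relative to reference corrector lumacaftor.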 The conditions noted are these: delF508-CFTR-HRP surface expression, CFBE41o- cells; for Emax: read-out: DelF508-CFTR-HRP Amax %; for EC50: read-out: DelF508-CFTR-HRP EC50. It is filed as cell-based. An outline of the steps:
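Surface-trafficked delF508-CFTR detected via extracellular HRP tag, read as luminescence from a membrane-impermeant substrate in CFBE41o- cells. Cells pre-induced 48h with 500 ng/mL doxycycline, then exposed 24h at 37° C to a 10-point, 3-fold dilution series from 10 μM (DMSO ≤0.5%). Triplicate dose-responses fitted logistically for EC50 after per-plate normalization; fold change versus reference compound.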

The target in the next test is T2, delF508-CFTR (Homo sapiens, UniProt P13569, DEL508-508).
T2 construct: functional activity of the CFTR channel (Chloride ion transport) in patient derived primary human bronchial epithelial cells; host or cells: patient-derived primary human bronchial epithelial cells (delF508-CFTR)
T2 sequence (P13569 with tags, fused parts or gaps DEL508-508): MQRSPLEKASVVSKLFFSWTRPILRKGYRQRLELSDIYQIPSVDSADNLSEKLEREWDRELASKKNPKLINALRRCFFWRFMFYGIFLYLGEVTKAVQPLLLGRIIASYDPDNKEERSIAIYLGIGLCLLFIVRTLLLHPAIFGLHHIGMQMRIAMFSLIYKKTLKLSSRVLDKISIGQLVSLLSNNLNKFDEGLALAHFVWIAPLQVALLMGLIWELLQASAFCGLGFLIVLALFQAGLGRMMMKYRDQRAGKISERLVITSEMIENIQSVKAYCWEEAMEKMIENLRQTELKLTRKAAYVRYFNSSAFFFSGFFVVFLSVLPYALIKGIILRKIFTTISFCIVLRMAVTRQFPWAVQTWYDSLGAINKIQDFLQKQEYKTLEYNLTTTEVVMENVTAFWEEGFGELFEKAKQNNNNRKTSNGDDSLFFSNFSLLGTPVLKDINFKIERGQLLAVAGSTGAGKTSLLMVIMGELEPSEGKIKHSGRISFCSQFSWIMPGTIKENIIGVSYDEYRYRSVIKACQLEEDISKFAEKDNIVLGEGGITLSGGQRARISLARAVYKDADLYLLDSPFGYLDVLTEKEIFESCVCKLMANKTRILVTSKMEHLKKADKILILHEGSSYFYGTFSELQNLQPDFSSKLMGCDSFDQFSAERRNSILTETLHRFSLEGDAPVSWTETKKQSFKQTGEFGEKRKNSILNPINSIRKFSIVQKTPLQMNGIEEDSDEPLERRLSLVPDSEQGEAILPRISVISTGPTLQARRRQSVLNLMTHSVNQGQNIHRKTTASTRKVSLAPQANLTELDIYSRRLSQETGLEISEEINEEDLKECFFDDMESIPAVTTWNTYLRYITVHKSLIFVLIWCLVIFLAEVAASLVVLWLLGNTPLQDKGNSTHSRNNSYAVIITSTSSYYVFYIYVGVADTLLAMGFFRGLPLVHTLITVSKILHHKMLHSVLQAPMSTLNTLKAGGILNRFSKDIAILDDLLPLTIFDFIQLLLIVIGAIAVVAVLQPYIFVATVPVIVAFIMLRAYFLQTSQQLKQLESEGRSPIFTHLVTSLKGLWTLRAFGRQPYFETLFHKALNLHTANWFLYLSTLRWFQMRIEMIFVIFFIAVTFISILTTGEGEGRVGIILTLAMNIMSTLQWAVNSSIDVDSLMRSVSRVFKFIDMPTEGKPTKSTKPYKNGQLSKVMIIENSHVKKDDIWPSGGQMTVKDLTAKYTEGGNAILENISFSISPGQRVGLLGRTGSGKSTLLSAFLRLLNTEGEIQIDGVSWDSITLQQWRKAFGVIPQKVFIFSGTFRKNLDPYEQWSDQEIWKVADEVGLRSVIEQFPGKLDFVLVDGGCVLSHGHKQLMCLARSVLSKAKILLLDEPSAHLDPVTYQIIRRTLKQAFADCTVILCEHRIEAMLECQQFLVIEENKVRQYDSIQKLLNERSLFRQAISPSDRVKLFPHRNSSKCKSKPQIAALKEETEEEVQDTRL
The test can be described thus: Measurement of delF508-CFTR functional activity in primary human bronchial epithelial cells (HBECs) using Multi-Transepithelial Clamp Circuit (MTECC-24) assay. It is filed as cell-based. Particulars: primary CF HBECs; for MTECC24 CFHBEC- Amax %: test compound added 24h before assay plus potentiator, relative to reference combination (2 μM corrector + 0.5 μM potentiator); for EC50: test compound added 24h before assay, in the presence of potentiator, mean of at least two replicates, read-out: MTECC24 CFHBEC- EC50. An outline of the steps:
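Compound tested as 10-point, 1-in-3 concentration response (0.1% or 0.2% DMSO), 24 h basolateral pre-incubation, then re-added to both sides. MTECC-24 measured Ieq in ALI-differentiated primary delF508 bronchial cells after amiloride, forskolin activation, potentiator and INH-172 block; data normalized to DMSO baseline, EC50 fitted.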

Where a name gives a salt, the structure may show the parent alone.

T1 sequence (P13569 with tags, fused parts or gaps DEL508-508): as above

Consider `CC1(C(=O)O)CCN(c2cccc(S(=O)(=O)Nc3ccc(C(F)(F)F)c(-c4ccccc4N4CCOCC4)n3)n2)CC1` [Example 343, 4-methyl-1-(6-(N-(6-(2-morpholinophenyl)-5-(trifluoromethyl)pyridin-2-yl)sulfamoyl)pyridin-2-yl)piperidine-4-carboxylic Acid], for which, in test [1], the Emax amounted to 197% and the EC50 came out at 2150 nM. Besides, on delF508-CFTR, the “MTECC24 CFHBEC- Amax %” value was 65.3% and the EC50 came to 86.1 nM.
Taken in the same sequence, the figures for `Cc1ccccc1-c1nc(NS(=O)(=O)c2cccc(N[C@@H]3COCC[C@@H]3O)n2)ccc1C(F)(F)F` (single isomer, unassigned) [Example 281] were 680%, 2010 nM, 85.9% and 3.7 nM.
As to `Cc1ccccc1-c1nc(NS(=O)(=O)c2cccc(N3CCC(C)(N)CC3)n2)ccc1C(F)(F)F` [Example 110, 6-(4-amino-4-methylpiperidin-1-yl)-N-(6-(o-tolyl)-5-(trifluoromethyl)pyridin-2-yl)pyridine-2-sulfonamide Hydrochloride], in test [1], the Emax was 372% and the EC50 was determined as 2800 nM. At delF508-CFTR, the “MTECC24 CFHBEC- Amax %” value turned out to be 65.6% and the EC50 was 28 nM.
The matching figures for `Cc1ccccc1-c1nc(NS(=O)(=O)c2cccc(N3CC[C@H](N)C3)n2)ccc1C(F)(F)F` [Example 120, (S)-6-(3-aminopyrrolidin-1-yl)-N-(6-(o-tolyl)-5-(trifluoromethyl)pyridin-2-yl)pyridine-2-sulfonamide Hydrochloride]: 270%, 2820 nM, 57.9% and 37.2 nM.
The matching figures for `CCc1ccccc1-c1nc(NS(=O)(=O)c2ccnc(N3CCC(C)(C(=O)O)CC3)c2)ccc1C(F)(F)F` [Example 374, 1-(4-(N-(6-(2-ethylphenyl)-5-(trifluoromethyl)pyridin-2-yl)sulfamoyl)pyridin-2-yl)-4-methylpiperidine-4-carboxylic Acid]: 233%, 2780 nM, 39.8% and 133 nM.
The matching figures for `Cc1ccccc1-c1nc(NS(=O)(=O)c2cccc(N[C@@H]3COCC[C@@H]3O)n2)ccc1C(F)(F)F` (racemic) [Example 280, rac-6-{[(3RS,4SR)-4-hydroxyoxan-3-yl]amino}-N-[6-(2-methylphenyl)-5-(trifluoromethyl)pyridin-2-yl]pyridine-2-sulfonamide]: 844%, 1960 nM, 96.3% and 2.5 nM.
Regarding `Cc1ccc(C#N)cc1-c1nc(NS(=O)(=O)c2cccc(N3CC(C)(O)C3)n2)ccc1C(F)(F)F` [Example 299, N-(6-(5-cyano-2-methylphenyl)-5-(trifluoromethyl)pyridin-2-yl)-6-(3-hydroxy-3-methylazetidin-1-yl)pyridine-2-sulfonamide], in test [1], the Emax was 554% and the EC50 was 2440 nM. Besides, on delF508-CFTR, the “MTECC24 CFHBEC- Amax %” value was determined as 61.7% and the EC50 was determined as 9.4 nM.
Turning to `Cc1ccccc1-c1nc(NS(=O)(=O)c2cccc(N[C@H]3C[C@@](C)(C(=O)O)C3)n2)ccc1C(F)(F)F` [Example 356, (1s,3s)-1-methyl-3-((6-(N-(6-(o-tolyl)-5-(trifluoromethyl)pyridin-2-yl)sulfamoyl)pyridin-2-yl)amino)cyclobutanecarboxylic Acid], in test [1], the “DelF508-CFTR-HRP Amax %” value was 553.8% and the EC50 is 1510 nM. At delF508-CFTR, the “MTECC24 CFHBEC- Amax %” value stood at 70.1% and the EC50 worked out at 7.49 nM.
`Cc1ccccc1-c1nc(NS(=O)(=O)c2cccc(N3CCN(CC(N)=O)CC3)n2)ccc1C(F)(F)F` [Example 183, 2-(4-(6-(N-(6-(o-tolyl)-5-(trifluoromethyl)pyridin-2-yl)sulfamoyl)pyridin-2-yl)piperazin-1-yl)acetamide]: in test [1], the Emax came out at 191% and the EC50 is 896 nM. At delF508-CFTR, the “MTECC24 CFHBEC- Amax %” value came to 67.8% and the half-maximal effective concentration (EC50) came out at 74.9 nM.
Taken in the same sequence, the figures for `Nc1cccc(S(=O)(=O)Nc2ccc(C(F)(F)F)c(-c3ccccc3C3CC3)n2)n1` [Example 28] were 429%, 1380 nM, 77.1% and 1.6 nM.
The matching figures for `Cc1ccccc1-c1nc(NS(=O)(=O)c2cccc(N3CCNC(=O)C3)n2)ccc1C(F)(F)F` [Example 190, 6-(3-oxopiperazin-1-yl)-N-(6-(o-tolyl)-5-(trifluoromethyl)pyridin-2-yl)pyridine-2-sulfonamide]: 565%, 3410 nM, 64.5% and 13.2 nM.
The matching figures for `Cc1ccccc1-c1nc(NS(=O)(=O)c2cccc(N[C@@H]3CCNC3)n2)ccc1C(F)(F)F` [Example 123, (R)-6-(pyrrolidin-3-ylamino)-N-(6-(o-tolyl)-5-(trifluoromethyl)pyridin-2-yl)pyridine-2-sulfonamide Hydrochloride]: 218%, 3150 nM, 85.2% and 238 nM.
For the compound `Cc1ccccc1-c1nc(NS(=O)(=O)c2cccc(N3CC[C@H](O)[C@H]3C)n2)ccc1C(F)(F)F` [Example 314, 6-((2R,3S)-3-hydroxy-2-methylpyrrolidin-1-yl)-N-(6-(o-tolyl)-5-(trifluoromethyl)pyridin-2-yl)pyridine-2-sulfonamide], the EC50 worked out at 1590 nM in test [1] and 10 nM at delF508-CFTR. For the same compound, the “MTECC24 CFHBEC- Amax %” value at delF508-CFTR turned out to be 96.4%.
Regarding `Cc1ccccc1-c1nc(NS(=O)(=O)c2cccc(N[C@@H]3CCOC[C@H]3O)n2)ccc1C(F)(F)F` [Example 274, 6-(((3S,4R)-3-hydroxytetrahydro-2H-pyran-4-yl)amino)-N-(6-(o-tolyl)-5-(trifluoromethyl)pyridin-2-yl)pyridine-2-sulfonamide], in test [1], the Emax was 779% and the EC50 was found to be 1870 nM. On delF508-CFTR, the “MTECC24 CFHBEC- Amax %” value turned out to be 77.0% and the EC50 was 3.3 nM.
As to `O=S(=O)(Nc1ccc(Cl)c(-c2ccccc2C(F)(F)F)n1)c1cccc(N[C@H]2COC[C@@H]2O)n1` [Example 125, N-(5-chloro-6-(2-(trifluoromethyl)phenyl)pyridin-2-yl)-6-(((3S,4R)-4-hydroxytetrahydrofuran-3-yl)amino)pyridine-2-sulfonamide], in test [1], the Emax amounted to 215% and the EC50 was found to be 1940 nM. Moreover, on delF508-CFTR, the “MTECC24 CFHBEC- Amax %” value is 67.5% and the concentration for a half-maximal effect (EC50) is 47.5 nM.
Taken in the same sequence, the figures for `O=S(=O)(Nc1ccc(C(F)(F)F)c(-c2ccccc2C(F)(F)F)n1)c1cccc(N2CC(O)C2)n1` [Example 224, 6-(3-hydroxyazetidin-1-yl)-N-(5-(trifluoromethyl)-6-(2-(trifluoromethyl)phenyl)pyridin-2-yl)pyridine-2-sulfonamide] were 499%, 1380 nM, 63.9% and 4.9 nM.
Taken in the same sequence, the figures for `Cc1ccc(C(F)(F)F)cc1-c1nc(NS(=O)(=O)c2cccc(N3CC(O)C3)n2)ccc1Cl` [Example 223, N-(5-chloro-6-(2-methyl-5-(trifluoromethyl)phenyl)pyridin-2-yl)-6-(3-hydroxyazetidin-1-yl)pyridine-2-sulfonamide] were 427%, 1920 nM, 59.9% and 14.4 nM.
Take `Nc1cccc(S(=O)(=O)Nc2ccc(Cl)c(-c3ccccc3C(F)(F)F)n2)n1` [Example 55, 6-amino-N-(5-chloro-6-(2-(trifluoromethyl)phenyl)pyridin-2-yl)pyridine-2-sulfonamide]: in test [1], the Emax was found to be 305% and the EC50 came to 1700 nM. Also, on delF508-CFTR, the “MTECC24 CFHBEC- Amax %” value was found to be 86.7% and the half-maximal effective concentration (EC50) is 15.5 nM.
Taken in the same sequence, the figures for `Cc1ccc(F)cc1-c1nc(NS(=O)(=O)c2cccc(N)n2)ccc1Cl` [Example 6, 6-amino-N-(5-chloro-6-(5-fluoro-2-methylphenyl)pyridin-2-yl)pyridine-2-sulfonamide] were 612%, 1510 nM, 61.0% and 13.1 nM.
Taken in the same sequence, the figures for `O=C(O)[C@H]1CCCN(c2cccc(S(=O)(=O)Nc3ccc(C(F)(F)F)c(-c4ccccc4C4CCC4)n3)n2)C1` [Example 367, (S)-1-(6-(N-(6-(2-cyclobutylphenyl)-5-(trifluoromethyl)pyridin-2-yl)sulfamoyl)pyridin-2-yl)piperidine-3-carboxylic Acid] were 809%, 928 nM, 91.2% and 1.4 nM.

Usually EC50 stands for the concentration giving half of the maximal effect.
